Assay results taken from article PMC6154598, “Alkamides from Anacyclus pyrethrum L. and Their in Vitro Antiprotozoal Activity” (Molecules : A Journal of Synthetic Chemistry and Natural …, 2017).
Converted amounts (≈) assume the structure as drawn. Read-outs that look alike come from different tables or passages of the source.

Key:
P. falciparum (NF54 IEF) [1] = test system: P. falciparum (NF54 IEF); set-up: method as in PMID 24853616; settings: previously reported data; cited from earlier work
[2] = test system: T. b. rhodesiense (STIB 900 strain, bloodstream trypomastigotes); assay: In vitro antiprotozoal activity against T. b. rhodesiense; type: cell-based, Trypanosoma brucei rhodesiense; settings: for SI Tbr: ratio of cytotoxic (L6) over antiprotozoal IC50 (Tbr)
Experimental: (§1) Tests for antiprotozoal activities were carried out using established standard protocols at the Swiss Tropical and Public Health Institute (Swiss TPH, Basel, Switzerland). The assays and the IC50 determinations were performed essentially as described previously. The compounds used as positive controls in the various bioassays (see Table 1) were of commercial origin, with the exception of melarsoprol, which was a gift from the WHO. Their purity (generally >95%) was specified by the manufacturers. The purity of test compounds was assessed by UHPLC/MS analyses and found to be >90% in case of compounds 1–6 and >80% in case of 7. Compounds 8 + 9 represented a mixture in a ratio of approximately 1:4 (Figure S10).

[3] = Cytotoxicity against L6 rat skeletal myoblasts; type: cell-based
Experimental: as §1

[4] = test system: T. cruzi (Tulahuen C4 strain; intracellular amastigotes); assay: In vitro antiprotozoal activity against T. cruzi; type: cell-based, Trypanosoma cruzi
Experimental: as §1

[5] = test system: L. donovani (MHOM-ET-67/L82 strain, axenic amastigotes); assay: In vitro antiprotozoal activity against L. donovani; type: cell-based, Leishmania donovani; settings: for SI Ld: ratio of cytotoxic (L6) over antiprotozoal IC50 (Ld)
Experimental: as §1

P. falciparum (NF54 IEF) [6] = assay: In vitro antiprotozoal activity against P. falciparum; type: cell-based, Plasmodium falciparum; settings: for SI Pf: ratio of cytotoxic (L6) over antiprotozoal IC50 (Pf)
Experimental: as §1

[7] = test system: L6 rat skeletal myoblast cell line; assay: Cytotoxicity against L6 rat skeletal myoblasts; type: cell-based
Experimental: as §1

[8] = Trypanosoma brucei, STIB 900 strain, bloodstream trypomastigotes, mean of two determinations ± deviation, read-out: IC50 Tbr
[9] = Trypanosoma brucei, STIB 900 strain, bloodstream trypomastigotes, value in μM of pure compound, read-out: IC50 Tbr (in brackets)
[10] = rat, IC50 Cytotox (in brackets)
[11] = Trypanosoma cruzi, Tulahuen C4 strain, intracellular amastigotes, mean of two determinations ± deviation, read-out: IC50 Tc
[12] = Trypanosoma cruzi, Tulahuen C4 strain, intracellular amastigotes, value in μM of pure compound, read-out: IC50 Tc (in brackets)
[13] = Leishmania donovani, MHOM-ET-67/L82 strain, axenic amastigotes, mean of two determinations ± deviation, read-out: IC50 Ld
[14] = Leishmania donovani, MHOM-ET-67/L82 strain, axenic amastigotes, value in μM of pure compound, read-out: IC50 Ld (in brackets)
[15] = Plasmodium falciparum, NF54, NF54 IEF, mean of two determinations ± deviation, read-out: IC50 Pf
[16] = Plasmodium falciparum, NF54, NF54 IEF, value in μM of pure compound, read-out: IC50 Pf (in brackets)
[17] = L6 rat skeletal myoblast cell line, mean of two determinations ± deviation, read-out: IC50 Cytotox
[18] = L6 rat skeletal myoblast cell line, value in μM of pure compound, read-out: IC50 Cytotox (in brackets)
[19] = Plasmodium falciparum, NF54, read-out: IC50 Pf
[20] = Plasmodium falciparum, NF54, read-out: IC50 Pf (in brackets)
[21] = NF54 IEF, mean of two determinations ± deviation

Compound | IC50 [2, 8] | IC50 [2, 9] | SI Tbr [2] | IC50 ([3]; rat, IC50 Cytotox) | IC50 [3, 10] | IC50 [4, 11] | IC50 [4, 12] | IC50 [5, 13] | IC50 [5, 14] | SI Ld [5] | IC50 (P. falciparum (NF54 IEF) [6]; [15]) | IC50 (P. falciparum (NF54 IEF) [6]; [16]) | SI Pf (P. falciparum (NF54 IEF) [6]) | other results
CCCCC/C=C/C=C/C(=O)NCC(C)C [Compound 2, deca-2E,4E-dienoic acid isobutylamide] |  |  |  |  |  |  |  |  |  |  |  |  |  | IC50 Pf (P. falciparum (NF54 IEF) [1]): 3.3 µg/mL (≈ 14.8 µM)
C=CCCC/C=C/C=C/C(=O)NCC(C)C [Compound 3, deca-2E,4E,9-trienoic acid isobutylamide] | 2.91 ± 0.21 µg/mL | 13.2 µM | 5.7 | 16.7 ± 0.1 µg/mL | 75.3 µM | 39.9 µg/mL | 181 µM | 4.77 ± 1.02 µg/mL | 21.6 µM | 3.5 | 7.13 ± 0.63 µg/mL | 32.2 µM | 2.3 | 
CCCCC/C=C/C=C/C(=O)NCCc1ccccc1 [Compound 4, deca-2E,4E-dienoic acid 2-phenylethylamide] | 4.03 µg/mL | 14.9 µM | 2.0 |  |  |  | 18.5 µM |  |  | 2.7 |  |  |  | IC50 [3, 17]: 7.88 µg/mL; IC50 [3, 18]: 29.1 µM; IC50 ([4]; Trypanosoma cruzi, TULAHUEN, read-out: IC50 Tc): 5.02 ± 0.05 µg/mL; IC50 ([5]; Leishmania donovani, read-out: IC50 Ld): 2.97 ± 0.54 µg/mL; IC50 ([5]; Leishmania donovani, read-out: IC50 Ld (in brackets)): 11 µM; IC50 (P. falciparum (NF54 IEF) [6]; [19]): > 5 µg/mL; IC50 (P. falciparum (NF54 IEF) [6]; [20]): > 18 µM
C/C=C\C#CC#CCC/C=C/C=C/C(=O)NCC(C)C [Compound 6, tetradeca-2E,4E,12Z-trien-8,10-diynoic acid isobutylamide] | 6.37 ± 0.94 µg/mL | 23.7 µM | 3.1 | 19.4 ± 1.7 µg/mL | 72.2 µM | 38.8 ± 2.1 µg/mL | 144 µM | 5.04 ± 1.17 µg/mL | 18.7 µM | 3.9 | 7.19 ± 0.49 µg/mL | 26.7 µM | 2.7 | 
CCCCCCC/C=C/C=C/C(=O)NCCc1ccc(O)cc1 [Compound 7, Dodeca-2E,4E-dienoic acid 4-hydroxy-2-phenylethylamide] | 2.26 ± 0.18 µg/mL | 7.17 µM | 0.1 | 0.2 µg/mL | 0.69 µM | 1.88 µg/mL |  | 4.19 ± 1.64 µg/mL | 13.3 µM | <0.1 | 3.2 µg/mL | 10.1 µM | <0.1 | IC50 Cytotox ([7]; rat): 0.19 ± 0.05 µg/mL (≈ 0.602 µM); IC50 ([4]; Trypanosoma cruzi, TULAHUEN, read-out: IC50 Tc (in brackets)): 5.97 µM; IC50 Pf (P. falciparum (NF54 IEF) [6]; [21]): 3.18 ± 0.20 µg/mL (≈ 10.1 µM)
CCN(CC)CCCC(C)Nc1ccnc2cc(Cl)ccc12 (stereo not drawn) [chloroquine, reference compound] |  |  |  |  |  |  |  |  |  |  |  |  |  | IC50 (P. falciparum (NF54 IEF) [6]; [19]): 0.08 ± 0.003 µg/mL; IC50 (P. falciparum (NF54 IEF) [6]; [20]): 0.25 µM
Nc1nc(N)nc(Nc2ccc([As]3SCC(CO)S3)cc2)n1 (stereo not drawn) [melarsoprol, reference compound] |  |  |  |  |  |  |  |  |  |  |  |  |  | IC50 ([2]; Trypanosoma brucei, read-out: IC50 Tbr): 0.003 ± 0.001 µg/mL; IC50 ([2]; Trypanosoma brucei, read-out: IC50 Tbr (in brackets)): 0.008 µM
CCCCCCCCCCCCCCCCOP(=O)([O-])OCC[N+](C)(C)C [miltefosine, reference compound] |  |  |  |  |  |  |  | 0.127 ± 0.052 µg/mL | 0.312 µM |  |  |  |  | 
COc1cc([C@@H]2c3cc4c(cc3[C@H](O)[C@H]3COC(=O)[C@H]23)OCO4)cc(OC)c1OC [podophyllotoxin, reference compound] |  |  |  |  |  |  |  |  |  |  |  |  |  | IC50 [3, 17]: 0.008 ± 0.001 µg/mL; IC50 [3, 18]: 0.019 µM
undeca-2E,4E-dien-8,10-diynoic acid isopentylamide [Compound 5] |  |  | 6.2 |  |  |  |  |  |  | 7.0 |  |  | 2.7 | IC50 Tbr ([2]; STIB 900 strain, bloodstream trypomastigotes, mean of two determinations ± deviation): 4.59 ± 0.39 µg/mL; IC50 ([2]; STIB 900 strain, bloodstream trypomastigotes, value in μM of pure compound, read-out: IC50 Tbr (in brackets)): 18.9 µM; IC50 [7]: 116 µM; IC50 Cytotox [7]: 28.2 ± 6.9 µg/mL; IC50 Tc ([4]; Tulahuen C4 strain, intracellular amastigotes, mean of two determinations ± deviation): 16.3 ± 0.3 µg/mL; IC50 ([4]; Tulahuen C4 strain, intracellular amastigotes, value in μM of pure compound, read-out: IC50 Tc (in brackets)): 66.9 µM; IC50 Ld ([5]; MHOM-ET-67/L82 strain, axenic amastigotes, mean of two determinations ± deviation): 4.04 ± 0.71 µg/mL; IC50 ([5]; MHOM-ET-67/L82 strain, axenic amastigotes, value in μM of pure compound, read-out: IC50 Ld (in brackets)): 16.6 µM; IC50 Pf (P. falciparum (NF54 IEF) [6]; [21]): 10.3 ± 1.4 µg/mL; IC50 (P. falciparum (NF54 IEF) [6]; NF54 IEF, value in μM of pure compound, read-out: IC50 Pf (in brackets)): 42.5 µM
